Experimental data reported in PMC6338780, “Structural elements of a pH-sensitive inhibitor binding site in NMDA receptors” (Nature Communications, 2019).
Where “and” joins values, the source holds several entries; their conditions need not be identical. Equal values may be shown once. Marks after values point to notes of the source that are not given here.

Tests used:
[1] = molecular target: T1, GluN1a–GluN2B ATD heterodimer (UniProt A0A1L8F5J9+Q00960, N348D/N350Q/N61Q); experiment: ITC, ligands titrated into isolated GluN1a–GluN2B ATD heterodimer; type: binding, Xenopus GluN1a, rat GluN2B
T1 construct: the ATD domains of Xenopus GluN1a and rat GluN2B; alkaline phosphatase secretion signal (N); 57 residue linker to the other ATD, with TEV protease sites (cleaved yes); made in house
T1 sequence (Q00960 31-394 N348D limits assumed, other chains not shown): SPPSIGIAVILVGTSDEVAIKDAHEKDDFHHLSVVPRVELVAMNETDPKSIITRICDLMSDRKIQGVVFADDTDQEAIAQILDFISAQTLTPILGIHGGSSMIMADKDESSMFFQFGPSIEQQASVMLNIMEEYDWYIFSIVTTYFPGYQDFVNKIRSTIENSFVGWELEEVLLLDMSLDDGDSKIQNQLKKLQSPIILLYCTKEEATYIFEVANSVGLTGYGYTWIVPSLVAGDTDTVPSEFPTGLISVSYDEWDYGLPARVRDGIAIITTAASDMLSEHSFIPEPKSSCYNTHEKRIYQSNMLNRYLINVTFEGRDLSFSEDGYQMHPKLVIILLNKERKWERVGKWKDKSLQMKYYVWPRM
Text: In order to directly estimate binding affinities of these inhibitors for their binding site in the GluN1–GluN2B NMDA receptors, we performed ITC using the purified GluN1a–GluN2B ATD proteins titrated with ligands of various N-substituent lengths at pH 7.6 and pH 6.5 to mimic the extreme drop in pH that can occur at the ischemic core[1]–[4] (Fig. 2a, b; Supplementary Figures 2 and 3). Toward this end, we expressed the isolated […] GluN1a–GluN2B ATD heterodimer proteins in GnTI^− HEK293S cells. Here, for clarity we will call the GluN1 ATD with and without exon 5 GluN1b ATD and GluN1a ATD, respectively.
To efficiently express the ATD domains of Xenopus GluN1a and rat GluN2B, we used the alkaline phosphatase secretion signal and fused the two domains with a 57 residue linker as described elsewhere, with the following modifications: due to an intrinsic thrombin site in the GluN2B ATD, we engineering Tobacco Etch Virus (TEV) protease sites into this construct to remove the linker. In addition, three glycosylation sites were removed by mutating GluN1a Asn61 and Asn371 to Gln, and GluN2B Asn348 was mutated to Asp.
Cell cultures were maintained at 37 °C with 5% CO2 and grown to a density of 2.0–2.5 × 10^6 cells mL^−1, then infected with baculovirus. Sodium butyrate was added to the infected cells to a final concentration of 5 mM and culture medium containing secreted GluN1a–GluN2B ATD fusion protein was harvested 96 h after infection.
Cells were removed from the medium by centrifugation and the clarified medium was concentrated and exchanged three times to cold TBS (200 mM NaCl, 20 mM Tris, pH 8.0) using tangential flow filtration with a molecular weight cutoff of 30 kDa (Pall Corporation). […] The following day, glutathione in a 10:1 ratio, reduced:oxidized, was added to the dialyzed protein to a final concentration of 3 mM, along with EDTA, pH 8.0, to a final concentration of 1 mM. Based on the protein yield, a 1:100 ratio of TEV protease (mass:mass, TEV:ATD) was added to the ATD solution and the reaction was incubated for 4 h at 18 °C. Next, EndoF1 endoglycosidase at a 1:5 ratio (mass:mass, EndoF1:ATD) was added to the ATD/TEV mixture and dialyzed overnight at room temperature to 2 L TBS with 10% glycerol and 20 mM imidazole.
This sample was then dialyzed overnight at 4 °C to 2 L TBS with 20% glycerol. […]
After dialysis, the protein sample was diluted to 10–15 μM and dimethyl sulfoxide (DMSO) was added to a final concentration of 1.5% (v/v), in order to match that of the ligand solution. […] Dilution enthalpy was calculated from post-saturation injections and subtracted from total heats, and the data were fit using a single-site model with the program OriginLab 7.5.

[2] = molecular target: GluN1b–GluN2B ATD heterodimer (Xenopus laevis; Rattus norvegicus, UniProt A0A1L8F5J9+Q00960, E186G/INS190SKKRNYENLDQLSYDNKRGPK/N348D/N350Q/N61Q); experiment: ITC, ifenprodil titrated into isolated GluN1b–GluN2B ATD used for crystallization; type: binding; conditions: pH 7.6
UniProt Q00960, sequence (Q00960 32-394 N348D, other chains not shown): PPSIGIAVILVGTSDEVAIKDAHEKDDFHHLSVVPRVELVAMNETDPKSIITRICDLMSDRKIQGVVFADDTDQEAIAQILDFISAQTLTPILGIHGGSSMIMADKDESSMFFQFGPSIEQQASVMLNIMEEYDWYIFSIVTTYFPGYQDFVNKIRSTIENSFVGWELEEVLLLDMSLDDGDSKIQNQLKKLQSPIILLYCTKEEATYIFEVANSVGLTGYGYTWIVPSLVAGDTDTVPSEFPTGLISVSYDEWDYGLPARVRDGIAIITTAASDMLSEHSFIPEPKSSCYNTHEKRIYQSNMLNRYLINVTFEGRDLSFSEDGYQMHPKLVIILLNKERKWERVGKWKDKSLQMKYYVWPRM

[3] = molecular target: GluN1b–GluN2B ATD heterodimer (Xenopus laevis; Rattus norvegicus, UniProt A0A1L8F5J9+Q00960, E186G/INS190[…]/N348D/N350Q/N61Q); experiment: as above; type: binding; conditions: pH 7.6
GluN1b–GluN2B ATD heterodimer (Xenopus laevis; Rattus norvegicus, UniProt A0A1L8F5J9+Q00960, E186G/INS190[…]/N348D/N350Q/N61Q), sequence (Q00960 32-394 N348D, other chains not shown): as above

[4] = molecular target: T2, GluN1-4a/GluN2B (WT) NMDA receptor (Rattus norvegicus, UniProt P35439+Q00960); experiment: TEVC concentration–response in Xenopus oocytes, wild type GluN1-4a/GluN2B; type: cell-based; conditions: for Ifenprodil DR, response at 0.01: ifenprodil at 0.01; for Ifenprodil DR, response at 0.01 / Ifenprodil DR, response at 0.03 / Ifenprodil DR, response at 0.1: relative to 100/100 G/G; for Ifenprodil DR, response at 0.03: ifenprodil at 0.03; for Ifenprodil DR, response at 0.1: ifenprodil at 0.1
T2 construct: compared to that observed for full-length receptors in TEVC recordings; expressed in transfected cells; host or cells: Xenopus laevis oocytes, cRNA injection
T2 sequence (Q00960 27-1482, other chains not shown): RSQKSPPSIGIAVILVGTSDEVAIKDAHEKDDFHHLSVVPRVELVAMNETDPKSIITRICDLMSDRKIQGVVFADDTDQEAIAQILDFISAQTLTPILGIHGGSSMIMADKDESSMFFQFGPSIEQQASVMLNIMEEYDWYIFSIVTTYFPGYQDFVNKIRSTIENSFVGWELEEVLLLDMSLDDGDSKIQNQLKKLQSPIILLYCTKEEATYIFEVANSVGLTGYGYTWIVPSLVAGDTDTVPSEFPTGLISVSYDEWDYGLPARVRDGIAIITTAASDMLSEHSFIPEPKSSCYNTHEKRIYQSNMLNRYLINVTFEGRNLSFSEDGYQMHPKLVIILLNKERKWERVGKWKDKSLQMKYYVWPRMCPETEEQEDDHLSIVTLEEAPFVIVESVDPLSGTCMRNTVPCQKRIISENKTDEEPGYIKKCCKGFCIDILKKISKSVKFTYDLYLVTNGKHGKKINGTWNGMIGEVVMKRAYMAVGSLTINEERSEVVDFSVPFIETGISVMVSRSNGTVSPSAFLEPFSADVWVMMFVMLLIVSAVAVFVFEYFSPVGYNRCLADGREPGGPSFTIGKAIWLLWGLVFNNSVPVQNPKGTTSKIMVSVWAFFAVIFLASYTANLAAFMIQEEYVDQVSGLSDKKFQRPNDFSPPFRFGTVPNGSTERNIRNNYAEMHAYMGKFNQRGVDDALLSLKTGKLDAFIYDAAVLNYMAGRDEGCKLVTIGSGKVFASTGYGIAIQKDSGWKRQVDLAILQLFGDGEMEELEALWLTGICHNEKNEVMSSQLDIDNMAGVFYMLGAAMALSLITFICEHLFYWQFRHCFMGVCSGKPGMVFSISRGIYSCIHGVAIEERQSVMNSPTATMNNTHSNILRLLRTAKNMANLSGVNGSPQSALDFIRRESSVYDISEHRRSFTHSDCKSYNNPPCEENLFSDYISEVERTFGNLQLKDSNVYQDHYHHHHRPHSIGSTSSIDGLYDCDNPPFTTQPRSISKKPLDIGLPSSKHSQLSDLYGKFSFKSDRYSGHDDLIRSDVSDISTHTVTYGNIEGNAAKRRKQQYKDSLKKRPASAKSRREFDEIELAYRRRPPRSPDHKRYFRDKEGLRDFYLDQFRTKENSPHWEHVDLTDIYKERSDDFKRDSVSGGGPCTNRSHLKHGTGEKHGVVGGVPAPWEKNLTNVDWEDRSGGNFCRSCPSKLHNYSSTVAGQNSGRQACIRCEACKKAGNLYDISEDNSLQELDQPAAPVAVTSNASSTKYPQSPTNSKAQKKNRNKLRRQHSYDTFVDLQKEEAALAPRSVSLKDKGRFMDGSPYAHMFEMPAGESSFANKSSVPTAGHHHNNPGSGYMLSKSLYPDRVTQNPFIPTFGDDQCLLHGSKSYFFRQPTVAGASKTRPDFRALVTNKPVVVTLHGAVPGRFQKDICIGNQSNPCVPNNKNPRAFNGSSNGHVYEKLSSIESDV
Protocol: Missense mutations were introduced into rat cDNAs encoding GluN1-4a and GluN2B in the pGEM-HE vector using the QuikChange protocol (Stratagene) using the primers listed in Supplementary Table 2. These plasmids were then linearized with NotI and used as templates for cRNA synthesis (Ambion). A total mass of 5–10 ng cRNA at a 1:2 weight ratio of GluN1-4a and GluN2B transcripts was co-injected into defolliculated Xenopus laevis oocytes (EcoCyte Bioscience). The oocytes were incubated in Barth’s solution containing 88 mM NaCl, 2.4 mM NaHCO3, 1 mM KCl, 0.33 mM Ca(NO3)2, 0.41 mM CaCl2, 0.82 mM MgSO4, and 5 mM HEPES, at a final pH of 7.4, supplemented with 0.1 mg mL^−1 gentamicin sulfate, 1 μg mL^−1 streptomycin, and 1 U mL^−1 penicillin at 15–19 °C. TEVC current recordings were performed 2–4 days after injection using an extracellular recording solution containing 90 mM NaCl, 10 mM HEPES, 1 mM KCl, 0.5 mM BaCl2, and 0.01 mM EDTA at either pH 6.9 or pH 7.6[39]. Voltage clamp was achieved and current responses were recorded at a holding potential of –40 mV with a two-electrode voltage clamp amplifier (Warner) at room temperature (~23 °C). Currents were low-pass filtered at 10 Hz and digitized at 20 Hz by LabWindows/CVI (National Instruments). […]

[5] = molecular target: T3, GluN1-4a(Y109W)/GluN2B NMDA receptor (Rattus norvegicus, UniProt P35439+Q00960, Y109W); experiment: TEVC concentration–response, GluN1-4a(Y109W) mutant; type: cell-based; conditions: pH 7.6; BAPTA (Table 3)
T3 construct: compared to that observed for full-length receptors in TEVC recordings; expressed in transfected cells; host or cells: Xenopus laevis oocytes, cRNA injection
T3 sequence (Q00960 27-1482, other chains not shown): as above
Protocol: Missense mutations were introduced into rat cDNAs encoding GluN1-4a and GluN2B in the pGEM-HE vector using the QuikChange protocol (Stratagene) using the primers listed in Supplementary Table 2. These plasmids were then linearized with NotI and used as templates for cRNA synthesis (Ambion). A total mass of 5–10 ng cRNA at a 1:2 weight ratio of GluN1-4a and GluN2B transcripts was co-injected into defolliculated Xenopus laevis oocytes (EcoCyte Bioscience). The oocytes were incubated in Barth’s solution containing 88 mM NaCl, 2.4 mM NaHCO3, 1 mM KCl, 0.33 mM Ca(NO3)2, 0.41 mM CaCl2, 0.82 mM MgSO4, and 5 mM HEPES, at a final pH of 7.4, supplemented with 0.1 mg mL^−1 gentamicin sulfate, 1 μg mL^−1 streptomycin, and 1 U mL^−1 penicillin at 15–19 °C. TEVC current recordings were performed 2–4 days after injection using an extracellular recording solution containing 90 mM NaCl, 10 mM HEPES, 1 mM KCl, 0.5 mM BaCl2, and 0.01 mM EDTA at either pH 6.9 or pH 7.6[39]. Voltage clamp was achieved and current responses were recorded at a holding potential of –40 mV with a two-electrode voltage clamp amplifier (Warner) at room temperature (~23 °C). Currents were low-pass filtered at 10 Hz and digitized at 20 Hz by LabWindows/CVI (National Instruments). Maximal effective concentrations of glutamate and glycine (100 and 30 μM, respectively) were used in all recordings.

[6] = molecular target: T4, GluN1-4a(H134A)/GluN2B NMDA receptor (Rattus norvegicus, UniProt P35439+Q00960, H134A); experiment: TEVC concentration–response, GluN1-4a(H134A) mutant; type: cell-based; conditions: pH 7.6; BAPTA (Table 3)
T4 construct: compared to that observed for full-length receptors in TEVC recordings; expressed in transfected cells; host or cells: Xenopus laevis oocytes, cRNA injection
Protocol: Missense mutations were introduced into rat cDNAs encoding GluN1-4a and GluN2B in the pGEM-HE vector using the QuikChange protocol (Stratagene) using the primers listed in Supplementary Table 2. These plasmids were then linearized with NotI and used as templates for cRNA synthesis (Ambion). A total mass of 5–10 ng cRNA at a 1:2 weight ratio of GluN1-4a and GluN2B transcripts was co-injected into defolliculated Xenopus laevis oocytes (EcoCyte Bioscience). […] Voltage clamp was achieved and current responses were recorded at a holding potential of –40 mV with a two-electrode voltage clamp amplifier (Warner) at room temperature (~23 °C). Currents were low-pass filtered at 10 Hz and digitized at 20 Hz by LabWindows/CVI (National Instruments). Maximal effective concentrations of glutamate and glycine (100 and 30 μM, respectively) were used in all recordings.

## CC(C(O)c1ccc(O)cc1)N1CCC(Cc2ccccc2)CC1 (centres unmarked) [Ifenprodil, Ifenprodil hemitartrate]
[1]; pH 6.5
  Kd: 249 ± 16 nM
  n (ITC stoichiometry): 0.97 ± 0.01
[1]; pH 7.6
  Kd: 226 ± 15 nM
  n (ITC stoichiometry): 1.0 ± 0.01
[2]
  Kd: 255 ± 11 nM
[3]
  n (ITC stoichiometry): 0.98 ± 0.01
[4]; 1-4a/2B WT, pH7.6, BAPTA, ifenprodil
  nH: 0.8364 and 0.9502 and 1.0632 and 0.8875 and 0.8992 and 1.197 and 1.038
[4]; 1-4a/2B WT, pH7.6, BAPTA
  Ifenprodil DR, response at 0.01: 89.9 and 98.2 and 90 and 89 and 92.8 and 95.6 and 95.4
  Ifenprodil DR, response at 0.03: 78.8 and 96.7 and 76.5 and 75.3 and 82 and 88.4 and 87
  Ifenprodil DR, response at 0.1: 64.2 and 90.5 and 49.1 and 54.7 and 63.1 and 64.1 and 66.9
[4]; 1-4a/2B WT, pH7.6, BAPTA, mean
  Ifenprodil DR, response at 0.01: 92.9857
  Ifenprodil DR, response at 0.03: 83.5286
  Ifenprodil DR, response at 0.1: 64.6571
[4]; 1-4a/2B WT, pH7.6, BAPTA, ifenprodil, mean
  nH: 0.9818
[4]; Ifenprodil DR, 1-4a/2B WT, pH7.6, BAPTA, single oocyte recordings, row 'mean' = mean
  nH: 0.8875 and 0.8992 and 1.197 and 1.038 and 0.8364 and 0.9502 and 1.0632
[4]; Ifenprodil DR, 1-4a/2B WT, pH7.6, BAPTA, single oocyte recordings, row 'mean' = mean, mean
  nH: 0.9818
[4]; current at 1 μM ifenprodil, pH 7.6, BAPTA
  % response: 35%
[4]; pH 7.6, BAPTA (Table 3)
  nH: 1.0
[5]
  % response, current at maximal ifenprodil potentiation: ND, 115%^f nH ND (9)
[6]
  % response, current at maximal ifenprodil potentiation: ND, 105%^f nH ND (9)
